Reference: ChEMBL document CHEMBL4814028, “Design, synthesis, and antibacterial evaluation of PFK-158 derivatives as potent agents against drug-resistant bacteria” (Bioorg Med Chem Lett, 2021)
Converted amounts (≈) assume the structure as drawn.

Tests used:
Staphylococcus aureus [1] = assay: Antibacterial activity against methicillin-sensitive Staphylococcus aureus ATCC 29213 by agar method; format: functional
Escherichia coli [2] = assay: Antibacterial activity against NDM-1 positive Escherichia coli ATCC 2469 by agar method; format: functional
[3] = test system: Staphylococcus epidermidis; assay: Antibacterial activity against methicillin-sensitive Staphylococcus epidermidis ATCC 12228 by agar method; format: functional
Enterococcus faecalis [4] = assay: Antibacterial activity against Vancomycin-sensitive Enterococcus faecalis ATCC 29212 by agar method; format: functional
Acinetobacter baumannii = assay: Antibacterial activity against carbapenem-resistant Acinetobacter baumannii 16-33 by agar method; format: functional
[5] = test system: Staphylococcus epidermidis; assay: Antibacterial activity against methicillin-resistant Staphylococcus epidermidis 16-5 by agar method; format: functional
Staphylococcus aureus [6] = assay: Antibacterial activity against methicillin-resistant Staphylococcus aureus ATCC 33591 by agar method; format: functional
A549 = assay: Cytotoxicity against human A549 cells; format: cell-based
Escherichia coli [7] = assay: Antibacterial activity against ESBLs positive Escherichia coli ATCC 35218 by agar method; format: functional
Escherichia coli [8] = assay: Antibacterial activity against ESBLs negative Escherichia coli ATCC 25922 by agar method; format: functional
Enterococcus faecalis [9] = assay: Antibacterial activity against vancomycin-resistant Enterococcus faecalis ATCC 51299 by agar method; format: functional

SMILES | MIC (Staphylococcus aureus [1]) | MIC (Escherichia coli [2]) | MIC [3] | MIC (Enterococcus faecalis [4]) | MIC (Acinetobacter baumannii) | MIC [5] | MIC (Staphylococcus aureus [6]) | IC50 (A549) | MIC (Escherichia coli [7]) | MIC (Escherichia coli [8]) | MIC (Enterococcus faecalis [9])
O=C(/C=C/c1ccc2ccc(C(F)(F)F)cc2n1)c1cccnc1 | 1 µg/mL (≈ 3.05 µM) | > 32 µg/mL | 1 µg/mL (≈ 3.05 µM) | 4 µg/mL (≈ 12.2 µM) | > 32 µg/mL | 2 µg/mL (≈ 6.09 µM) | 1 µg/mL (≈ 3.05 µM) | 9.8 µM | > 32 µg/mL | > 32 µg/mL | 4 µg/mL (≈ 12.2 µM)
O=C(/C=C/c1cnc2ccccc2c1)c1ccccn1 | 8 µg/mL (≈ 30.7 µM) | > 128 µg/mL | 8 µg/mL (≈ 30.7 µM) | 32 µg/mL (≈ 123 µM) | 128 µg/mL (≈ 492 µM) | 8 µg/mL (≈ 30.7 µM) | 8 µg/mL (≈ 30.7 µM) |  | > 128 µg/mL | > 128 µg/mL | 32 µg/mL (≈ 123 µM)
O=C(/C=C/c1cnc2ccccc2c1)c1ccncc1 | 8 µg/mL (≈ 30.7 µM) | > 128 µg/mL | 8 µg/mL (≈ 30.7 µM) | 32 µg/mL (≈ 123 µM) | 128 µg/mL (≈ 492 µM) | 8 µg/mL (≈ 30.7 µM) | 8 µg/mL (≈ 30.7 µM) |  | > 128 µg/mL | > 128 µg/mL | 16 µg/mL (≈ 61.5 µM)
O=C(/C=C/c1ccncc1)c1ccc2ccc(C(F)(F)F)cc2n1 | > 32 µg/mL | > 32 µg/mL | > 32 µg/mL | > 32 µg/mL | > 32 µg/mL | > 32 µg/mL | 16 µg/mL (≈ 48.7 µM) |  | > 32 µg/mL | > 32 µg/mL | > 32 µg/mL
O=C(/C=C/c1cnc2ccccc2c1)c1cccnc1 | 16 µg/mL (≈ 61.5 µM) | > 128 µg/mL | 16 µg/mL (≈ 61.5 µM) | 32 µg/mL (≈ 123 µM) | 128 µg/mL (≈ 492 µM) | 32 µg/mL (≈ 123 µM) | 32 µg/mL (≈ 123 µM) |  | > 128 µg/mL | > 128 µg/mL | 32 µg/mL (≈ 123 µM)
O=C(/C=C/c1ccc2ncccc2c1)c1ccccn1 | 8 µg/mL (≈ 30.7 µM) | > 128 µg/mL | 8 µg/mL (≈ 30.7 µM) | 32 µg/mL (≈ 123 µM) | 128 µg/mL (≈ 492 µM) | 8 µg/mL (≈ 30.7 µM) | 8 µg/mL (≈ 30.7 µM) |  | > 128 µg/mL | > 128 µg/mL | 32 µg/mL (≈ 123 µM)
O=C(/C=C/c1cccnc1)c1ccc2ccc(C(F)(F)F)cc2n1 | > 32 µg/mL | > 32 µg/mL | > 32 µg/mL | > 32 µg/mL | > 32 µg/mL | > 32 µg/mL | 32 µg/mL (≈ 97.5 µM) |  | > 32 µg/mL | > 32 µg/mL | > 32 µg/mL
O=C(/C=C/c1ccc2ccc(C(F)(F)F)cc2n1)c1ccccn1 | 1 µg/mL (≈ 3.05 µM) | > 128 µg/mL | 4 µg/mL (≈ 12.2 µM) | > 128 µg/mL | 128 µg/mL (≈ 390 µM) | 4 µg/mL (≈ 12.2 µM) | 2 µg/mL (≈ 6.09 µM) | 10.2 µM | > 128 µg/mL | > 128 µg/mL | 128 µg/mL (≈ 390 µM)
C[C@H]1COc2c(N3CCN(C)CC3)c(F)cc3c(=O)c(C(=O)O)cn1c23.C[C@H]1COc2c(N3CCN(C)CC3)c(F)cc3c(=O)c(C(=O)O)cn1c23.O [LEVOFLOXACIN] | 0.12 µg/mL | 16 µg/mL | 0.12 µg/mL | 1 µg/mL | 2 µg/mL | 8 µg/mL | 0.12 µg/mL |  |  |  | 0.5 µg/mL
O=C(/C=C/c1ccc2ccc(C(F)(F)F)cc2n1)c1ccc(O)c(O)c1 | 32 µg/mL (≈ 89.1 µM) | > 128 µg/mL | 16 µg/mL (≈ 44.5 µM) | > 128 µg/mL | > 128 µg/mL | 16 µg/mL (≈ 44.5 µM) | 32 µg/mL (≈ 89.1 µM) |  | > 128 µg/mL | > 128 µg/mL | > 128 µg/mL
C[n+]1cccc(/C=C/C(=O)c2ccc3ccccc3c2)c1.[I-] | 128 µg/mL | > 128 µg/mL | 64 µg/mL | > 128 µg/mL | > 128 µg/mL | > 128 µg/mL | 128 µg/mL |  | > 128 µg/mL | > 128 µg/mL | > 128 µg/mL
COCOc1ccc(C(=O)/C=C/c2ccc3ccc(C(F)(F)F)cc3n2)cc1OCOC | > 64 µg/mL | > 64 µg/mL | > 64 µg/mL | > 64 µg/mL | > 64 µg/mL | > 64 µg/mL | > 64 µg/mL |  | > 64 µg/mL | > 64 µg/mL | > 64 µg/mL
O=C(/C=C/c1ccc2ccccc2n1)c1ccc(O)c(O)c1 | 32 µg/mL (≈ 110 µM) | > 64 µg/mL | 16 µg/mL (≈ 54.9 µM) | > 64 µg/mL | > 64 µg/mL | 32 µg/mL (≈ 110 µM) | 32 µg/mL (≈ 110 µM) |  | > 64 µg/mL | > 64 µg/mL | > 64 µg/mL
O=C(/C=C/c1ccc2ncccc2c1)c1ccncc1 | 8 µg/mL (≈ 30.7 µM) | > 128 µg/mL | 16 µg/mL (≈ 61.5 µM) | 32 µg/mL (≈ 123 µM) | 128 µg/mL (≈ 492 µM) | 16 µg/mL (≈ 61.5 µM) | 8 µg/mL (≈ 30.7 µM) |  | > 128 µg/mL | > 128 µg/mL | 32 µg/mL (≈ 123 µM)
O=C(/C=C/c1ccncc1)c1ccc2ccccc2c1 | 8 µg/mL (≈ 30.9 µM) | > 128 µg/mL | 4 µg/mL (≈ 15.4 µM) | > 128 µg/mL | > 128 µg/mL | 8 µg/mL (≈ 30.9 µM) | 4 µg/mL (≈ 15.4 µM) |  | > 128 µg/mL | > 128 µg/mL | > 128 µg/mL
O=C(/C=C/c1ccc2ccccc2c1)c1ccccn1 | > 128 µg/mL | > 128 µg/mL | > 128 µg/mL | > 128 µg/mL | > 128 µg/mL | > 128 µg/mL | > 128 µg/mL |  | > 128 µg/mL | > 128 µg/mL | > 128 µg/mL
